# According to patent US9988462B2, “Material and methods for treating or preventing HER-3 associated diseases” (Daiichi Sankyo Europe GmbH, priority 2005, dated 2018):
# B1: U1-53: anti-HER-3 antibody, SEQ ID NO: 54/56 (antibody, V domains shown)
# VH: EVQLVESGGGLVQPGGSLRLSCAASGFTFSIYSMNWVRQAPGKGLEWVSYISSSSSTIYYADSVKGRFTISRDNAKNSLYLQMNSLRDEDTAVYYCARDRGDFDAFDIWGQGTMVTVSS
# VL: DIQMTQSPSSLSASVGDRVTITCQASQDITNYLNWYQQKPGKAPKLLIYDASNLETGVPSRFSGSGSGTDFTFTISSLQPEDIATYNCQQCENFPITFGQGTRLEIK
# How the values were obtained:
# [1] = test system: HER3 phosphorylation in A549 cells; assay: Reactivation study: pHER3 ELISA in A549 cells; format: cell-based, human
# Protocol: Experiments were performed in triplicate wells and repeated at least 2 times. Results are expressed as mean±SD.
# A549 cells were plated in Ham's F-12 medium (Gibco), all media supplemented with 10% FBS (Hyclone, Logan, Utah) and 1× L-glutamine (Gibco). Cells were serum-starved overnight. […] Cells were washed with cold PBS after their respective treatment time points and lysed using RIPA buffer (20 mM Tris-HCl pH 7.5, 1% Igepal, 1% sodium deoxycholate, 150 mM NaCl, 0.1% SDS, 1% Triton X-100) containing 200 μM phenylmethanesulfonylfluoride (PMSF) (Fluka Biochemica), 200 μM Halt protease inhibitor cocktail kit (Pierce Biotechnology), and 200 μM sodium orthovanadate (Sigma-Aldrich, St. Louis, Mo.). The lysates were passed through QIA shredder columns (Qiagen) and the flow-through quantitated using a spectrophotometer (Beckman Coulter, Fullerton, Calif.). Proteins, 50 μg per well, were analyzed in duplicate for pHER3 using ELISA Duoset (R&D systems) according to manufacturer's protocol.
# [2] = test system: HCC-1569; assay: HCC-1569 breast cancer xenograft, U1-59 and lapatinib; format: in vivo, mouse; conditions: HCC-1569 xenograft
# [3] = Serum concentration of U1-59 at necropsy; format: in vivo, mouse
# Protocol: (§1) Inhibition of pHER in the BxPC3 xenograft tumors was analyzed by western blotting. A PK/PD/Efficacy model (based on Simeoni et al. (2004) Cancer Res. 64:1094-1101) was used to prospectively select dose and schedule for further testing. To confirm the PK/PD/Efficacy model, BxPC3 pancreatic tumor-bearing mice were treated with 400 μg/mouse biweekly and 200 μg/mouse biweekly, weekly and twice a week. […] The relationship between drug concentration, inhibition of pHER-3 in animals, and interspecies PK scaling was used to select the minimally effective dose for the first in human study.
# [4] = target: T1, L1-S1 extra-cellular domains of HER-3 (Homo sapiens, UniProt P21860); assay: ELISA binding to truncated L1-S1 HER-3 protein
# T1 construct: L1 domain (aa 19-184), in the S1 (aa 185-327); V5-His (C); made in house; host or cells: HEK 293T (supernatant)
# [5] = test system: pHER-3; assay: pHER-3 in BxPC3 xenograft tumors (quantitative Western blot); format: in vivo, mouse; conditions: for inhibition of pHER-3: quantitative Western blot
# Protocol: as §1
# [6] = test system: BxPC3; assay: BxPC3 xenograft in SCID mice, combination with Erbitux; format: in vivo, mouse; conditions: BxPC3 with Matrigel, CB17 SCID mice, weekly i.p. for six weeks
# Protocol: 5×10^6 BxPC3 cells were inoculated subcutaneously with Matrigel into CB17 SCID mice. After tumor volumes had reached 200 mm^3, mice were randomized into individual treatment groups. […] All antibodies were dosed at a single loading dose of 50 mg/kg/week, followed by weekly injections of 25 mg/kg for six weeks. Control arms received bi-weekly administrations of Gemcitabine (120 mg/kg), weekly pooled human IgG or weekly vehicle (PBS) injections. The regimens are detailed in TABLE 9 below.
# [7] = target: T2, reduced, denatured HER-3-His tagged purified ECD protein (Homo sapiens, UniProt P21860); assay: Dot blot analysis of reduced, denatured HER-3 ECD; format: binding
# T2 construct: The extracellular domain of HER-3 (ECD) cDNA was cloned by polymerase chain reaction (PCR); His (C); made in house; host or cells: HEK293
# [8] = Interspecies scaling of U1-59 PK to human; conditions: estimated by interspecies scaling (mice, rat, monkeys)
# Protocol: as §1
# [9] = test system: MDA-MB-175VII breast cancer cells; assay: Proliferation of MDA-MB-175VII cells (ALOMAR BLUE); format: cell-based, human; conditions: four days
# Protocol: After four days, the growth of treated cells was measured with ALOMAR BLUE™.
# [10] = test system: A549 NSCLC xenograft; assay: A549 NSCLC xenograft model; format: in vivo, mouse; conditions: vs IgG control or other HER mAbs
# Protocol: (§2) To determine in vivo efficacy, mice bearing ˜200 mm^3 Calu-3 NSCLC xenografts were treated twice a week with anti-HER family inhibitors or control. Other experiments were done with A549 cells.
# (§3) Tumor cell colonies formed in the absence of exogenous ligand for 10 days and were stained with MTT and quantified using a Scanalyzer HTS camera imaging system.
# [11] = test system: SkBr-3 breast cancer cells; assay: Anchorage-independent growth of SkBr-3 cells; format: cell-based, human
# Protocol: (§4) IgG was used as a negative control for all studies. Tumor cell colonies formed in the absence or presence of HRG for 6 to 10 days and were stained with MTT for 4 to 6 hours and quantified.
# [12] = test system: A549 cells; assay: Anchorage-independent growth of A549 cells; format: cell-based, human; conditions: A549, 10 μg/mL, 10 days
# Source text: as §3
# [13] = test system: BxPC3; assay: BxPC3 pancreatic tumor xenograft in SCID mice (established tumors); format: in vivo, mouse; conditions: BxPC3, CB17 SCID mice; for tumor growth: 50 mg/kg then 25 mg/kg once weekly i.p.
# Protocol: As controls sets of mice treated with either the vehicle control, PBS, or the established therapeutic antibody, Erbitux, were included. 5×10^6 BxPC3 cells were inoculated subcutaneously without Matrigel into CB17 SCiD mice. […] Thereafter the mice received once weekly 25 mg/kg injections for the duration of the study.
# [14] = target: T3, rat HER-3 (Rattus norvegicus, UniProt Q62799); assay: ELISA cross-reactivity with rat HER-3; format: binding
# T3 construct: The cDNAs expressing the ECD of human and rat HER-3 were cloned into mammalian expression vectors as V5-His fusion proteins; V5-His; made in house; host or cells: mammalian expression vector; HEK 293T is named only for the chimeras
# Source text: The extra-cellular domain (ECD) of Human HER-3 cDNA was amplified from RAT1-HER-3 cells. The rat HER-3 cDNAs was amplified by RT-PCR from rat liver RNA and confirmed by sequencing. The cDNAs expressing the ECD of human and rat HER-3 were cloned into mammalian expression vectors as V5-His fusion proteins. Domains from the human HER-3 ECD were swapped into the scaffold provided by the rat HER-3 ECD by using the Mfe1, BstX1 and DraIII internal restriction sites. By this means, various chimeric rat/human HER-3 ECD HIS fusion proteins (amino acids 1-160, 161-358, 359-575, 1-358, 359-604) were constructed and expressed via transient transfection of HEK 293T cells. Expression of the constructs was confirmed using a rat polyclonal antibody against human HER-3. The human monoclonal antibodies were tested in ELISA for binding to the secreted chimeric ECDs.
# [15] = test system: MDA-MB-435 cells; assay: Anchorage-independent growth of MDA-MB-435 cells; format: cell-based, human; conditions: basal MDA-MB-435
# Protocol: as §4
# [16] = test system: BxPC3 pancreatic xenografts; assay: BxPC3 xenograft dose/schedule efficacy (PK/PD/Efficacy model); format: in vivo, mouse; conditions: vs IgG control
# Protocol: as §1
# [17] = test system: Calu-3 NSCLC xenografts; assay: Calu-3 NSCLC xenograft, U1-59 with panitumumab or erlotinib; format: in vivo, mouse; conditions: Calu-3, twice a week; 100 μg U1-59, 100 μg panitumumab, 25 μg erlotinib
# Protocol: as §2
# [18] = test system: HER-3 phosphorylation (pHER-3); assay: Pharmacodynamic pHER-3 immunoblot of BxPC3 tumor xenografts; format: in vivo, mouse; conditions: 500 μg on day 1 and day 4, sacrificed day 5
# Protocol: The inhibition of HER-3 in the human pancreatic tumors could also be shown in a pharmacodynamic experiment. The BxPC3 tumor xenografts were grown as described above. […] The mice were treated on day 1 and day 4 and then sacrificed on day 5 to measure the antibody-dependent inhibition of HER-3 phosphorylation (pHER-3).
# The tumors were homogenized in a standard RIPA buffer with protease inhibitors. 50 μg clear lysate was separated on a 4-20% Tris-glycine gel, transferred onto a nitrocellulose membrane and blocked in 3% bovine serum albumin (BSA). Immunoblotting was performed using an anti-pHER-3 antibody (antibody 21D3, Cell Signaling technology). An anti-actin antibody (AB a-2066, Sigma) was used as a control.
# Expression was detected by enhanced chemiluminescence (Amersham Biosciences, Piscataway, N.J.). The images were captured with the Versadoc 5000 Imaging System (BioRad, Hercules, Calif.). […] See, FIG. 20 of US Publication No. 20080124345.
# [19] = test system: HER-3 phosphorylation in MCF-7 cells; assay: HRG-β induced HER-3 phosphorylation in MCF-7 cells (ELISA); format: cell-based, human; conditions: 10 nM HRG-β for 10 min, read-out: IC50, inhibition of phosphorylation of HER-3
# Protocol: Lysates were transferred to 1B4 (mouse anti-HER-3 mAb) ELISA plates and phosphorylation of HER-3 was analyzed with antibody 4G10. […] See, FIG. 7b of US Publication No. 20080124345.
# [20] = A549, 24 hours, 50 μg/ml U1-59, 5 μM gefitinib
# T3 sequence (Q62799 20-643 limits assumed): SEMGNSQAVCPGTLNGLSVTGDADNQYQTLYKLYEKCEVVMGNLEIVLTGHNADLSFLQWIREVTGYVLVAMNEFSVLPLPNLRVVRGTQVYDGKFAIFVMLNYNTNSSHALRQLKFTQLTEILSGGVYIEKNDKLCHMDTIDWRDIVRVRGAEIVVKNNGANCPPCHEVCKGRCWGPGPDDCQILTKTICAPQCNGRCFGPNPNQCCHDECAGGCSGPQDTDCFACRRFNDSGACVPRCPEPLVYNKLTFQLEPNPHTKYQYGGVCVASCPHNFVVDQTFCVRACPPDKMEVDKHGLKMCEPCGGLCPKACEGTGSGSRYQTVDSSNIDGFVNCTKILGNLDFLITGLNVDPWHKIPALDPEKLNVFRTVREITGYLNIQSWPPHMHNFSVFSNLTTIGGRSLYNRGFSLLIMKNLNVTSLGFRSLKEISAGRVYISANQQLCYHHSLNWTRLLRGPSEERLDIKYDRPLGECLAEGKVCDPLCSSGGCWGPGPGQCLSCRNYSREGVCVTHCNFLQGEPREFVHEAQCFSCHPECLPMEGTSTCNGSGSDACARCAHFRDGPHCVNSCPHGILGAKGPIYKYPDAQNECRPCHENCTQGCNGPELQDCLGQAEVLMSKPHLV
molecule,measurement,setting,value
"COc1cc2ncnc(Nc3ccc(F)c(Cl)c3)c2cc1OCCCN1CCOCC1 [gefitinib, 4-(3-chloro-4-fluorophenylamino)-7-methoxy-6-[3-(4-morpholinyl)propoxy]quinazoline]",HER3 phosphorylation,"[1]; A549, 1 hour, 5 μM gefitinib",partial inhibition of HER phosphorylation
same,HER3 phosphorylation,[1]; [20],reversed to control levels after 24 hours
"CS(=O)(=O)CCNCc1ccc(-c2ccc3ncnc(Nc4ccc(OCc5cccc(F)c5)c(Cl)c4)c3c2)o1 [lapatinib, N-[3-chloro-4-[(3-fluorobenzyl)oxy]phenyl]-6-[5-[[[2-(methylsulfonyl)ethyl]amino]methyl]furan-2-yl]quinazolin-4-amine bis(4-methylbenzene-sulfonate)monohydrate, reference compound]",tumor growth,[2],"some, but not significant tumor growth inhibition"
"U1-59: human anti-HER-3 antibody, SEQ ID NO: 70/72",HER3 phosphorylation,[1]; [20],greater inhibition of HER phosphorylation that was sustained after 24 hours
same,"Serum concentration at necropsy, mean (SD)",[3]; 200 μg/mouse biweekly,0.45 (0.21) μg/mL
same,"Serum concentration at necropsy, mean (SD)",[3]; 200 μg/mouse twice a week,34.9 (9.1) μg/mL
same,"Serum concentration at necropsy, mean (SD)",[3]; 200 μg/mouse weekly,3.08 (0.82) μg/mL
same,"Serum concentration at necropsy, mean (SD)",[3]; 400 μg/mouse biweekly,2.07 (0.97) μg/mL
same,binding to the L1-S1 protein,[4],bound to the L1-S1 protein
same,inhibition of pHER-3,[5]; 200 μg/mouse biweekly,58%
same,inhibition of pHER-3,[5]; 200 μg/mouse twice a week,20%
same,inhibition of pHER-3,[5]; 200 μg/mouse weekly,23%
same,inhibition of pHER-3,[5]; 400 μg/mouse biweekly,30%
same,trough concentration needed to achieve 90% maximal pHER-3 inhibition (IC90),"[5]; BxPC3 xenograft mice, estimated",~3 μg/ml
same,tumor growth,[2],did not inhibit HCC-1569 tumor growth
same,tumor growth,[6],delayed the growth of the human pancreatic tumors to the same degree as Gemcitabine
same,binding in dot blot analysis,[7],absence of binding
same,clearance (CL) in man,[8],11 mL/day/kg
same,initial volume of distribution (Vd) in man,[8],0.028 L/kg
same,reduction of HRG-stimulated proliferation,[9],up to 40%
same,tumor growth,[10],tumor stasis
same,inhibition of colony growth,[11],50%
same,inhibition of colony growth,[12],50%
same,delay of tumor growth compared with Erbitux,[13],more effective than the EGF-R-targeting antibody Erbitux at delaying tumor growth
same,tumor growth,[13],reduced the growth of the human pancreatic tumors in a cytostatic fashion
same,Rat XR (cross-reactive),[14],cross-reacted with rat HER-3 and Yes
same,colony growth / colony formation,[15],did not inhibit colony growth
same,inhibition of tumor growth,[16]; 200 μg/mouse biweekly,33%
same,inhibition of tumor growth,[16]; 200 μg/mouse twice a week,70%
same,inhibition of tumor growth,[16]; 200 μg/mouse weekly,74%
same,inhibition of tumor growth,[16]; 400 μg/mouse biweekly,50%
same,tumor growth,[17],greatly reduced tumor growth as compared to control
same,phosphorylation of HER-3 in tumors,[18],no longer detectable
panitumumab: fully human monoclonal antibody specific to EGF-R [reference compound],tumor growth,[17],greatly reduced tumor growth as compared to control
B1,tumor growth,[6],delayed the growth of the human pancreatic tumors to the same degree as Gemcitabine
same,IC50,[19],0.14 nM
same,binding in dot blot analysis,[7],absence of binding
same,delay of tumor growth compared with Erbitux,[13],more effective than the EGF-R-targeting antibody Erbitux at delaying tumor growth
same,tumor growth,[13],reduced the growth of the human pancreatic tumors in a cytostatic fashion
same,Rat XR (cross-reactive),[14],No
